Results from US20250236589A1, “THERAPEUTIC PHENETHYLAMINE COMPOSITIONS AND METHODS OF USE” (Cybin IRL Limited, priority 2022, published 2025).
Like-named read-outs stand apart in the source and are kept apart here.

What was measured:
5-HT transporter (h) = 5-HT transporter (h) (Homo sapiens (Human), UniProt P31645); assay: Off-target screen, radioligand displacement at 10 μM; assay type: binding
[1] = target: CXCR2 (Interleukin-8B) (h) (Homo sapiens (Human), UniProt P25025); assay: as above; conditions: read-out: binding at 10 μM
[2] = target: Calcitonin Gene-Related Peptide CGRP1 (h) (Homo sapiens (Human), UniProt Q16602); assay: as above; conditions: read-out: binding at 10 μM
Angiotensin AT2 (h) = Angiotensin AT2 (h) (Homo sapiens (Human), UniProt P50052); assay: as above; conditions: read-out: binding at 10 μM
Adenosine A2A (h) = Adenosine A2A (h) (Homo sapiens (Human), UniProt P29274); assay: as above; assay type: binding
[3] = tested on: P2X (ATP) (rat urinary bladder); assay: as above; assay type: binding
Prostaglandin EP4 (h) = Prostaglandin EP4 (h) (Homo sapiens (Human), UniProt P35408); assay: as above; conditions: read-out: binding at 10 μM
human 5-HT2B receptor [4] = target: T1, human 5-HT2B receptor (Homo sapiens (Human), UniProt P41595); assay: 5-HT2B radioligand binding ([125I](±)DOI)
Protocol: In another series of 5-HT1A,2A,2B radioligand competition binding assays, the conditions were as follows: For 5-HT1A assays, cell membrane homogenates (˜30 μg protein) derived from HEK-293 cells expressing human 5-HT1ARs were incubated with 0.5 nM [^3H]8-hydroxy-2-(di-n-propylamino)tetralin ([^3H]8-OH-DPAT) for 60 min at room temperature in the presence or absence of the test article. Non-specific binding was determined in the presence of 10 μM 8-OH-DPAT. Samples were then analyzed as described above, with only immaterial differences. […] Samples were then analyzed as described above.

human 5-HT2B receptor [5] = target: T1, human 5-HT2B receptor; assay: 5-HT2B functional assay, IP1 (IPOne); assay type: cell-based; conditions: for Emax: IP1 assay, relative to 5-HT
Protocol: 5-HT2A,2B,2C receptor-mediated Gq activation—canonical signaling pathways—[phosphoinositide hydrolysis leading to the production of inositol phosphate 1 (IP1, IPOne, Cisbio assay) or direct G-protein activation using TRUPATH technology]were measured as previously described (Porter, R. H. P., Benwell, K. R., Lamb, H., Malcolm, C. S., Allen, N. F., Revell, D. F., Adams, D. R. and Sheardown, M. J., 1999, Functional characterization of agonists at recombinant human 5-HT2a, 5HT2b and 5-HT2c receptors in CHO-K1 cells, Brit J Pharmacol 128, 13; Olsen, R. H. J., DiBerto, J. F., English, J. G. et al. TRUPATH, an open-source biosensor platform for interrogating the GPCR transducerome. […] Briefly, for the IPOne assay, for 5-HT2ARs, CHO-K1 or HEK-293 cells were incubated with test articles and 5-HT (positive control) in stimulation buffer containing LiCl. After incubation, cells were lysed and fluorescence acceptor and donor were added. FRET was measured after 60 min at room temperature using a microplate reader (Envision, Perkin Elmer). TRUPATH assays followed a similar workflow, except that different reagents were used, and LiCl was not included in the samples; the protocol was based on the report by Olsen, R. H. J. et al., cited above.

Adenosine A3 (h) = Adenosine A3 (h) (Homo sapiens (Human), UniProt P0DMS8); assay: Off-target screen, radioligand displacement at 10 μM; conditions: read-out: binding at 10 μM
Tachykinin NK2 (h) = Tachykinin NK2 (h) (Homo sapiens (Human), UniProt P21452); assay: as above; conditions: read-out: binding at 10 μM
5-HT1B (h) = 5-HT1B (h) (Homo sapiens (Human), UniProt P28222); assay: as above; assay type: binding; conditions: antagonist radioligand
Neuropeptide Y Y2 (h) = Neuropeptide Y Y2 (h) (Homo sapiens (Human), UniProt P49146); assay: as above; conditions: read-out: binding at 10 μM
MAO-A = MAO-A (Homo sapiens (Human), UniProt P21397); assay: Recombinant human MAO-A activity (stability); assay type: in vitro ADME; conditions: hrMAO 0.02 mg/mL, read-out: MAO-A, t1/2
Protocol: hrMAO-A and MAO control were purchased from XenoTech. The reaction mixture was prepared as described below. The test compound was added into the reaction mixture at a final concentration of 1 μM or co-dosed with their deuterated analog at 1 μM each. The positive control kynuramine (25 μM) was run simultaneously with the test compound in a separate reaction. The reaction mixture (without test compounds or kynuramine) was equilibrated in a shaking water bath at 37° C. for 5 minutes. The reaction was initiated by the addition of the test compound or kynuramine, and the mixture was incubated in a shaking water bath at 37° C. Aliquots (150 μL) of the test compound reaction mixture were withdrawn at 0, 5, 10, 20, 30, 60, and 120 minutes. Aliquots (150 μL) of the positive control reaction mixture were withdrawn at 0 and 30 minutes. Test compound(s) and kynuramine samples were immediately combined with 150 μL of ice-cold 100% acetonitrile containing 0.1% formic acid and internal standard (0.2 μM metoprolol) to terminate the reaction. The samples were then mixed and centrifuged to precipitate proteins. All samples were assayed by LC-MS/MS. The peak area response ratio (PARR) of analyte to internal standard at each time point was compared to the PARR at time 0 to determine the percent remaining at each time point. Half-lives were calculated using GraphPad software, fitting to a single-phase exponential decay equation.

T1 sequence (P41595 whole entry, looked up): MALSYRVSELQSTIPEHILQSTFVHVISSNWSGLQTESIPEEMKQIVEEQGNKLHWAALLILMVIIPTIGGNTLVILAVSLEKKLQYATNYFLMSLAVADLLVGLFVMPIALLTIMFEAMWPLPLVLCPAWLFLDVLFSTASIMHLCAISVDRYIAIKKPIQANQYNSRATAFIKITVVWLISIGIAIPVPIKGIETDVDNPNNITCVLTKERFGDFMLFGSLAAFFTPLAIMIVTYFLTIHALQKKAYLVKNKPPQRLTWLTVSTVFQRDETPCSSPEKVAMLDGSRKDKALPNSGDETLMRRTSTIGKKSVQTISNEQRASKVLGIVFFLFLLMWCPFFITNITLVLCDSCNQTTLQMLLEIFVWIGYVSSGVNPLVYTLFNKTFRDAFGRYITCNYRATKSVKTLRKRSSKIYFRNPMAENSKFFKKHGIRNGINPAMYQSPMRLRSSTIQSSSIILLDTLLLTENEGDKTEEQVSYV
Chain of Prostaglandin EP4 (h) (P35408 whole entry, looked up): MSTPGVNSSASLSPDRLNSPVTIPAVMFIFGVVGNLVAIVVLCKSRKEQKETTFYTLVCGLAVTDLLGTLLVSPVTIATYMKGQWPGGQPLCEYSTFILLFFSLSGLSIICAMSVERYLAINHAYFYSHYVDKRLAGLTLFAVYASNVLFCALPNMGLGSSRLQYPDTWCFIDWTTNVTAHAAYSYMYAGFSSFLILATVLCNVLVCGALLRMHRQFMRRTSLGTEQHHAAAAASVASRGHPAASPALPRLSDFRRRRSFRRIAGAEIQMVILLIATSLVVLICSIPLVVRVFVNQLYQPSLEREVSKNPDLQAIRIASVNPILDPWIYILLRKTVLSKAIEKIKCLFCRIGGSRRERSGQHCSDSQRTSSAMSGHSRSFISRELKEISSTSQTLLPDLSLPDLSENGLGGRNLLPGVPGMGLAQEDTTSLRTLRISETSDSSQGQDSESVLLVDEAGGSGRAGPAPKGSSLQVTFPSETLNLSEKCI
Chain of Neuropeptide Y Y2 (h) (P49146 whole entry, looked up): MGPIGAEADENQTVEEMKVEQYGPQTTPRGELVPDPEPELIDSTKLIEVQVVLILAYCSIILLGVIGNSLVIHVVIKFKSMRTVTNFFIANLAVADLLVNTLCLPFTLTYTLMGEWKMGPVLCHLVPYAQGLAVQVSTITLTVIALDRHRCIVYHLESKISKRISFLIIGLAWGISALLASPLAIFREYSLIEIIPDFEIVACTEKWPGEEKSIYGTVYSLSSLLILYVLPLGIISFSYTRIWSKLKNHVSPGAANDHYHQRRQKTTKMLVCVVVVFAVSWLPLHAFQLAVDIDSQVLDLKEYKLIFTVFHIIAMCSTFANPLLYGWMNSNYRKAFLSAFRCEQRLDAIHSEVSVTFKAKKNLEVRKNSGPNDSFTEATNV
Chain of CXCR2 (Interleukin-8B) (h) (P25025 whole entry, looked up): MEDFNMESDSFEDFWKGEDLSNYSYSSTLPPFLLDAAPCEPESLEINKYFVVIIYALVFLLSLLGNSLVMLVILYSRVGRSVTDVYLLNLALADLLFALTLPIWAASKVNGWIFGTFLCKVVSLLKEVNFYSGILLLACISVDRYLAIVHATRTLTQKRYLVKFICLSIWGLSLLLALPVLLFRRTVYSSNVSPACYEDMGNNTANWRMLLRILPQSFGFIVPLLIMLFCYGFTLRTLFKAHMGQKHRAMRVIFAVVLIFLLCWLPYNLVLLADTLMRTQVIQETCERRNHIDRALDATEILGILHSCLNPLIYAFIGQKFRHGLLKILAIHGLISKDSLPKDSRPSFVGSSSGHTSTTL
Chain of 5-HT1B (h) (P28222 whole entry, looked up): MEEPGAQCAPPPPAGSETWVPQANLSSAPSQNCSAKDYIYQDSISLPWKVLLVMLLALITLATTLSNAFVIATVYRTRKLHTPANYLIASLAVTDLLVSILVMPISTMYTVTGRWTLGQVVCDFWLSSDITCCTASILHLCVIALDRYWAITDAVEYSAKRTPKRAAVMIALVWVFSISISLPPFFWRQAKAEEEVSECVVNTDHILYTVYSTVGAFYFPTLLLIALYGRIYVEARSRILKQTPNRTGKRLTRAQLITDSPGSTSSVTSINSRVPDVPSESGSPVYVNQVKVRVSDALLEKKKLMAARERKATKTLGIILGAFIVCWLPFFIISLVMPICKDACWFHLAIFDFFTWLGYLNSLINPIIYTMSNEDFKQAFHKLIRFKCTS
Chain of Adenosine A3 (h) (P0DMS8 whole entry, looked up): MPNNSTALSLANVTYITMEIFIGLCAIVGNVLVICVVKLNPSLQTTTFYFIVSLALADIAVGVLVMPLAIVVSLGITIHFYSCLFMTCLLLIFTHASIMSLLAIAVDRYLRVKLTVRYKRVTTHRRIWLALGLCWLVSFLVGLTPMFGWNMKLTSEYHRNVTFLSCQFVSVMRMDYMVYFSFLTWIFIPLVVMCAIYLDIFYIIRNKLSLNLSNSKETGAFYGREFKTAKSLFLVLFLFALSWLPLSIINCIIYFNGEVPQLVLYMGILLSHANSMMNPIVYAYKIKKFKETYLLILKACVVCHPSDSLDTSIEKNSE
Chain of Calcitonin Gene-Related Peptide CGRP1 (h) (Q16602 whole entry, looked up): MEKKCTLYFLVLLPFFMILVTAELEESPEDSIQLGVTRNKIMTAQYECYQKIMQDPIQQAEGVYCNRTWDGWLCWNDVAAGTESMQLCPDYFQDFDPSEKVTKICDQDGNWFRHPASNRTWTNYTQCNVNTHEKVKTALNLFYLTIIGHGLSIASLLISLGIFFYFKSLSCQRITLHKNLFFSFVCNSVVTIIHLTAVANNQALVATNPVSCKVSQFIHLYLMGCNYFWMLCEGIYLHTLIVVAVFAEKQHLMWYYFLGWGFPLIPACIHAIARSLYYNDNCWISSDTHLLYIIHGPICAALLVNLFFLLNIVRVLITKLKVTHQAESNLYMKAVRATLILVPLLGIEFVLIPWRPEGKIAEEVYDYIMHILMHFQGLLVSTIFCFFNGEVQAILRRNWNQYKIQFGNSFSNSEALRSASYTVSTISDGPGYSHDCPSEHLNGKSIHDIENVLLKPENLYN
Chain of Calcitonin Gene-Related Peptide CGRP1 (h) (O60894 whole entry partner, looked up): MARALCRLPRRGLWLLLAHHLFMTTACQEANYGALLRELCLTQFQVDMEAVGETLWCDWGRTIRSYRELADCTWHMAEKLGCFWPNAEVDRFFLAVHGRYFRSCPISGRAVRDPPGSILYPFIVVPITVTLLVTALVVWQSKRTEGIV
Chain of Adenosine A2A (h) (P29274 whole entry, looked up): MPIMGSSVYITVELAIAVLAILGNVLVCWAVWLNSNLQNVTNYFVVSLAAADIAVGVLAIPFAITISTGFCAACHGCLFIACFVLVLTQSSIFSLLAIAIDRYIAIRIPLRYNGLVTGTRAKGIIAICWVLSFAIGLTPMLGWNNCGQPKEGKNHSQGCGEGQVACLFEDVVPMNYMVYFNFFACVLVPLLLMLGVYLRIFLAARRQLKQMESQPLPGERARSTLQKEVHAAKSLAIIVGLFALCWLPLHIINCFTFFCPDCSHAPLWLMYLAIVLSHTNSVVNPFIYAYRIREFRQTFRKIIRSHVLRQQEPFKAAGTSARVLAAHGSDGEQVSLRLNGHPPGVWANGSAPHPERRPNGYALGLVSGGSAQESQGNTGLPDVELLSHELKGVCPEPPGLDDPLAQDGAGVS
Chain of Tachykinin NK2 (h) (P21452 whole entry, looked up): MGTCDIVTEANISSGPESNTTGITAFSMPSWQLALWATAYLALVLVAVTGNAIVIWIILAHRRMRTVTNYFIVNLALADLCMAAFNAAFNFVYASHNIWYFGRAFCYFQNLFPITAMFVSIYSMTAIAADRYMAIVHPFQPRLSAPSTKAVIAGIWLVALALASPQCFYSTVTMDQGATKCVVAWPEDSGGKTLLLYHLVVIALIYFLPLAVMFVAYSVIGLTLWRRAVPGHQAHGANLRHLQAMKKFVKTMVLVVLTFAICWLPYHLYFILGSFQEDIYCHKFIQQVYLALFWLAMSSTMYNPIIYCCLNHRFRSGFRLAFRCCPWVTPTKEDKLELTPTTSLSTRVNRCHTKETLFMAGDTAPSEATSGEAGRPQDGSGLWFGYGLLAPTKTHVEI
Chain of Angiotensin AT2 (h) (P50052 whole entry, looked up): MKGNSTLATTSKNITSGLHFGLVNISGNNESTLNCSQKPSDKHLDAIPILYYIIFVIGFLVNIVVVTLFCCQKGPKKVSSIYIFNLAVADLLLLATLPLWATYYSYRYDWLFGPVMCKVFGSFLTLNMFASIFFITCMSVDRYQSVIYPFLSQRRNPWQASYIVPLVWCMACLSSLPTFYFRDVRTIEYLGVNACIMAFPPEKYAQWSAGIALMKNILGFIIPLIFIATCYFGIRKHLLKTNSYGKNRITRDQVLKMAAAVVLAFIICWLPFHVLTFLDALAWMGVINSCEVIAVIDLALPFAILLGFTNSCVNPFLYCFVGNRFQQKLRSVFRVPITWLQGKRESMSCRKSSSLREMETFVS
Chain of MAO-A (P21397 whole entry, looked up): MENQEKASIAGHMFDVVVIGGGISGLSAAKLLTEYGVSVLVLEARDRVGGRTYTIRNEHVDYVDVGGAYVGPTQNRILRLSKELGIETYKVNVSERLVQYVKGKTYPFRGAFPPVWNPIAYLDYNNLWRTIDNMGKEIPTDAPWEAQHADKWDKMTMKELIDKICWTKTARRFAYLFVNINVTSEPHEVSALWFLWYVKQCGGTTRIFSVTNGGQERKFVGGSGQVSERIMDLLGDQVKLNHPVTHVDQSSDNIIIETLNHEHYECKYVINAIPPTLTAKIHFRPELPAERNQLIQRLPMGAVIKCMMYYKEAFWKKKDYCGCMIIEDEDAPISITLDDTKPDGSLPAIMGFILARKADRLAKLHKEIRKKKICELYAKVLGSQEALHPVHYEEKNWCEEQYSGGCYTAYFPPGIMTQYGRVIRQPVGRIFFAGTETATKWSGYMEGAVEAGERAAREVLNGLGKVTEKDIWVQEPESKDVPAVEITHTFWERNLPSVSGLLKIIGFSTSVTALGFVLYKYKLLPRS

SMILES | inhibition at 10 µM (5-HT transporter (h); antagonist radioligand, read-out: inhibition at 10 μM) [%] | inhibition at 10 µM [1] [%] | inhibition at 10 µM [2] [%] | inhibition at 10 µM (Angiotensin AT2 (h)) [%] | binding at 10 μM (Adenosine A2A (h)) | binding at 10 μM [3] | inhibition at 10 µM (Prostaglandin EP4 (h)) [%] | Ki (human 5-HT2B receptor [4]) [nM] | EC50 (human 5-HT2B receptor [5]) [nM] | Emax (human 5-HT2B receptor [5]) [%] | inhibition at 10 µM (Adenosine A3 (h)) [%] | inhibition at 10 µM (Tachykinin NK2 (h)) [%] | inhibition at 10 µM (5-HT1B (h)) [%] | inhibition at 10 µM (Neuropeptide Y Y2 (h)) [%] | inhibition at 10 µM (5-HT transporter (h); read-out: binding at 10 μM) [%] | inhibition at 10 µM (human 5-HT2B receptor [4]) [%] | Ki (human 5-HT2B receptor [4]; radioligand [125I](±)DOI, read-out: 5-HT2B, Ki) [nM] | half-life at 1 μM (MAO-A) [h]
COc1cc(CC(C)N)c(OC)cc1I (racemic) [DOI, (±)-2,5-dimethoxy-4-iodoamphetamine, reference compound] | 76.2 | < 50 | < 50 | < 50 | NB (inhibited less than 50% of radioligand bound to them, and therefore it can be concluded they do not bind (“no binding,” NB)) | NB (inhibited less than 50% of radioligand bound to them, and therefore it can be concluded they do not bind (“no binding,” NB)) | < 50 | 1.5 | 16 | ~98 | < 50 | < 50 | 52.7 | < 50 |  |  |  | 
COc1cc(SC(F)(F)F)c(OC)cc1CCN [Compound I-1, 2-(2,5-dimethoxy-4-((trifluoromethyl)thio)phenyl)ethan-1-amine] |  | < 50 | < 50 | < 50 | NB (inhibited less than 50% of radioligand bound to them, and therefore it can be concluded they do not bind (“no binding,” NB)) | NB (inhibited less than 50% of radioligand bound to them, and therefore it can be concluded they do not bind (“no binding,” NB)) | < 50 |  | 88 | ~84 | < 50 | < 50 | > 80 | < 50 | < 50 | > 80 | 6.7 | > 2
